Experimental data reported in ChEMBL document CHEMBL3886309, “Spiro compounds useful as inhibitors of stearoyl-coenzyme A delta-9 desaturase” (2015).

Target: T1, Stearoyl-CoA desaturase (Homo sapiens, UniProt O00767)
T1 sequence (O00767 whole entry): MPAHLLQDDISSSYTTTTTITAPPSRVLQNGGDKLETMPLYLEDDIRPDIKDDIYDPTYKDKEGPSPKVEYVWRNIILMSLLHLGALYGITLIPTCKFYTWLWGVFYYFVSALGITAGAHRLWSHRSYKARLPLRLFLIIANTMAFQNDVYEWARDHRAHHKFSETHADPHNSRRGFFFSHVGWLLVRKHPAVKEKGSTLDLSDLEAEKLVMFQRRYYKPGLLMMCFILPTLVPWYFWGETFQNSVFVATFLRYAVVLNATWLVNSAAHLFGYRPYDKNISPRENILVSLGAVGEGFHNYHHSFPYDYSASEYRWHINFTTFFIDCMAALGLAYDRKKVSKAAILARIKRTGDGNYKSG
Assay: Enzyme Activity Assay: The potency of compounds of formula I against the stearoyl-CoA desaturase was determined by measuring the conversion of radiolabeled stearoyl-CoA to oleoyl-CoA using rat liver microsome or human SCD1 following previously published procedures with some modifications (Joshi, et al., J. Lipid Res., 18: 32-36 (1977); Talamo, et al., Anal. Biochem, 29: 300-304 (1969)). Liver microsome was prepared from male Wistar or Sprague Dawley rats on a high carbohydrate diet for 3 days (LabDiet #5803, Purina). The livers were homogenized (1:10 w/v) in a buffer containing 250 mM sucrose, 1 mM EDTA, 5 mM DTT and 50 mM Tris-HCl (pH 7.5). After a 100,000xg centrifugation for 60 min, the liver microsome pellet was suspended in a buffer containing 100 mM sodium phosphate, 20% glycerol, 2 mM DTT, and stored at -78° C. Human SCD1 desaturase system was reconstituted using human SCD1 from a baculovirus/Sf9 expression system, cytochrome B5 and cytochrome B5 reductase.
Type: microsomes

SMILES | IC50 [nM]
O=C(O)Cn1nnc(-c2cc(N3CCC4(CC3)CC(=O)c3c(Cl)cccc3O4)no2)n1 | 17
O=C(O)Cn1nnc(-c2cnc(N3CCC4(CC3)CC(=O)c3c(Cl)cccc3O4)s2)n1 | 12
O=C(O)Cn1nnc(-c2nnc(N3CCC4(CC3)CC(=O)c3c(Cl)cccc3O4)s2)n1 | 24
